Measured values taken from patent US10907212B2, “Inhibitors of cell adhesion” (Regents of the University of Minnesota, priority 2016, dated 2021).
“Also recorded” adds a separate entry of the source. Where no end group is shown, it is not given here.

What was measured:
[1] = test system: nectin 4 protein on NIH:OVCAR-5 cells; test: Effect of peptides on anti-Nectin-4 antibody binding to cells as determined by flow cytometry; format: cell-based, human; conditions: for IgG MFI: IgG control primary antibody; for nectin-4 antibody binding compared to untreated control cells (in words): flow cytometry; for Flow binding: summary table, Nectin-4 antibody binding relative to control = 100
Description: Confluent monolayers of cells were detached from 75 cm^2 tissue culture flasks using Accutase cell dissociation buffer (Innovative Cell Technologies, San Diego, Calif.), washed, and labeled with mouse IgG or mAbs against Nectin-4 or Nectin-1 (2.5 μg/10^6 cells) in Flow Buffer [phosphate buffered saline (PBS) containing 2.5% newborn calf serum and 0.02% sodium azide] for 30 min at 4° C.. Cells were washed and incubated with goat anti-mouse IgG F(ab′)2 (Jackson ImmunoResearch, West Grove, Pa.), then washed again and incubated with streptavidin-allophycocyanin conjugate (Jackson ImmunoResearch, West Grove, Pa.) for 30 min each. Cells were washed and fixed in Flow Buffer containing 1% formaldehyde and analyzed in the University of Minnesota Flow Cytometry Resource with a BD Accuri™ C6 flow cytometer (BD Biosciences, San Jose, Calif.) using the Accuri™ software.
Briefly, NIH:OVCAR-5 cells that natively express a moderate amount of nectin 4 protein were incubated for 30 minutes in 150 μg/mL of soluble peptide in DMSO. After incubation, the cells were washed, and then triple antibody stained using mouse anti-nectin 4 (or IgG control) primary antibody, biotinylated goat anti-mouse secondary antibody, and streptavidin APC tertiary antibody. Finally, utilizing the University of Minnesota flow core's Accuri C6 flow cytometer, the relative antibody binding affinity for control and peptide-treated samples was quantitated and compared. Data was collected for each of the 57 peptides generated.

[2] = test system: ovarian cancer cell aggregation and spheroid formation; test: Spheroid assay for peptides (visual scale +1 to +5); format: cell-based, human; conditions: for Spheroid-24: 24 hrs, Control = 2; for Spheroid-24 / Spheroid-48: visual scale of +1 to +5; for Spheroid-48: 48 hrs, Control = 4
Description: Spheroids were formed from the NIH:OVCAR5 cell lines described above using the liquid overlay method. One milliliter of a single cell suspension was seeded at a concentration of 50,000 cells/ml in OptiMEM® media, into 24-well tissue culture plates coated with 0.5% Seakem agarose (in complete RPMI-1640). Plates were incubated at 37° C. in a humidified incubator with 5% CO2. At various time points up to 5 days, the plates were removed from the incubator and the spheroids were photographed with a Nikon CoolPix digital camera mounted on an Olympus CK2 inverted microscope with a 4× objective. The size of the spheroids was determined using the measure tool in Adobe Photoshop. The largest spheroids were quantified (20-90 spheroids/well), in a minimum of 8 wells, for a total of >300 spheroids per cell type.
The clinical relevance is that by blocking the formation of spheroids, the cells will be more sensitive to chemotherapy (which targets the single cells that proliferate more rapidly than spheroids).
The spheroid assay for peptides 1-30 were scored using a visual scale of +1 to +5. The controls were scored at +2 (24 hrs) and +4 (48 hrs). […] It may be harder to visually assess the size at 24 hours, since the spheroids are relatively small, but and perhaps some of the peptides are affecting cell division, and that is why the spheroids are smaller than the controls at 48 hours, but not 24 hrs (this can be easily assayed with an MTT assay).

[3] = Run One, 150 μg/mL peptide, 30 minutes, Control 1 = 15,015
[4] = Run One, 150 μg/mL peptide, 30 minutes, Control 1 = 1,670
[5] = Run One, antibody binding relative to Control 1 = 100.00
[6] = Run Five, 150 μg/mL peptide, 30 minutes, Control 5 = 17,768.90
[7] = Run Five, Control 5 = 2.142155332
[8] = Run Five, antibody binding relative to Control 5 = 100
[9] = Run Three, 150 μg/mL peptide, 30 minutes, Control 3 = 13,070.20
[10] = Run Three, antibody binding relative to Control 3 = 100.00
[11] = Run Two, 150 μg/mL peptide, 30 minutes, Control 2 = 49,491
[12] = Run Two, antibody binding relative to Control 2 = 100.00
[13] = Run Four, 150 μg/mL peptide, 30 minutes, Control 4 = 9,631.58
[14] = Run Four, Control 4 = 9.387504873
[15] = Run Four, antibody binding relative to Control 4 = 100

Substance | N4 MFI [1, 3] | IgG MFI [1, 4] | N4 MFI/IgG MFI ([1]; Run One, Control 1 = 8.99) | nectin-4 antibody binding, percent of control [1, 5] | Spheroid-24 [2] | Spheroid-48 [2] | nectin-4 antibody binding compared to untreated control cells (in words) ([1]; 150 μg/mL peptide) | Flow binding [1] [%] | also measured
EGSPAPSVTWDTEV-NH2 (listed as Homo sapiens) [Peptide 13] | 15,623 | 3,720 | 4.20 | 89.19 | 1 | 2 |  |  | 
VVLGQDAKLPCFYR-NH2 (listed as Homo sapiens) [Peptide 2] | 11,895 | 2,458 | 4.84 | 70.72 |  | 3 |  |  | 
QARLRLRVLVPPLP-NH2 (listed as Homo sapiens) [Peptide 10] | 4,119 | 2,452 | 1.68 | 12.49 | 1 | 2 | reduction in nectin-4 antibody binding; also recorded: reduced antibody binding | 12.50 | spheroid size (in words) [2]: reduced spheroid size
HGRRAGPVPTA-NH2 (listed as Homo sapiens) [Peptide 56] |  |  |  |  |  | 3 |  |  | N4 MFI [1, 6]: 21,060.14; N4 MFI/IgG MFI [1, 7]: 2.035; IgG MFI ([1]; Run Five, Control 5 = 8,294.87): 10,346.61; nectin-4 antibody binding, percent of control [1, 8]: 113.1
FANPLPSVKITQVTW-NH2 (listed as Homo sapiens) [Peptide 32] |  |  |  |  |  | 2 | reduction in nectin-4 antibody binding | 13 | N4 MFI [1, 9]: 2,542.31; N4 MFI/IgG MFI ([1]; Run Three, Control 3 = 9.83): 2.47; IgG MFI ([1]; Run Three, Control 3 = 1330): 1029; nectin-4 antibody binding, percent of control [1, 10]: 12.89
PPPRNPLDGSVLLR-NH2 (listed as Homo sapiens) [Peptide 7] | 18,342 | 1,255 | 14.62 | 128.04 | 3 |  | increased the binding of the Nectin-4 antibody to cells | 128 | spheroid size relative to the control (in words) ([2]; at 24 hrs): slightly larger spheroid size
SGKQVDLVSAS-NH2 (listed as Homo sapiens) [Peptide 27] |  |  |  |  | 1 | 2 | reduction in nectin-4 antibody binding | 42 | N4 MFI [1, 11]: 22,824; N4 MFI/IgG MFI ([1]; Run Two, Control 2 = 9.46): 5.57; IgG MFI ([1]; Run Two, Control 2 = 5,233): 4,099; nectin-4 antibody binding, percent of control [1, 12]: 42.31
NPNGTVTVISRYRLV-NH2 (listed as Homo sapiens) [Peptide 44] |  |  |  |  | 3 |  |  |  | N4 MFI [1, 13]: 7,802.22; N4 MFI/IgG MFI [1, 14]: 8.481; IgG MFI ([1]; Run Four, Control 4 = 1,026): 920; nectin-4 antibody binding, percent of control [1, 15]: 79.97
GQDDKVLVATCTSANG-NH2 (listed as Homo sapiens) [Peptide 41] |  |  |  |  | 3 |  |  |  | N4 MFI [1, 13]: 9,040.73; N4 MFI/IgG MFI [1, 14]: 8.302; IgG MFI ([1]; Run Four, Control 4 = 1,026): 1,089; nectin-4 antibody binding, percent of control [1, 15]: 92.4
WTTLNGSLPKGVEAQNRT-NH2 (listed as Homo sapiens) [Peptide 57] |  |  |  |  |  | 3 | reduction in nectin-4 antibody binding |  | N4 MFI [1, 6]: 14,705.92; N4 MFI/IgG MFI [1, 7]: 1.874; IgG MFI ([1]; Run Five, Control 5 = 8,294.87): 7,848.89; nectin-4 antibody binding, percent of control [1, 8]: 72.38
HSQVVQVNDSMYGF-NH2 (listed as Homo sapiens) [Peptide 30] |  |  |  |  |  | 3 | erroneous/outlier due to solubility issues | 321 | N4 MFI [1, 11]: 205,442; N4 MFI/IgG MFI ([1]; Run Two, Control 2 = 9.46): 3.24; IgG MFI ([1]; Run Two, Control 2 = 5,233): 63,394; nectin-4 antibody binding, percent of control [1, 12]: 320.95
AWARVDAGEGAQEL-NH2 (listed as Homo sapiens) [Peptide 4] | 8,687 | 2,199 | 3.95 | 48.62 | 1 | 2 | reduction in nectin-4 antibody binding | 49 | 
LPSLNPGPALEEGQ-NH2 (listed as Homo sapiens) [Peptide 11] | 15,211 | 2,268 | 6.71 | 96.99 | ~1? | 3 |  |  | 
ELALLHSKYGLHVS-NH2 (listed as Homo sapiens) [Peptide 5] | 11,668 | 1,711 | 6.82 | 74.61 |  | 3 |  |  | 
SNEFSSRDSQVTVD-NH2 (listed as Homo sapiens) [Peptide 25] |  |  |  |  | 2 |  | reduction in nectin-4 antibody binding | 9.40 | N4 MFI [1, 11]: 7,756; N4 MFI/IgG MFI ([1]; Run Two, Control 2 = 9.46): 2.16; IgG MFI ([1]; Run Two, Control 2 = 5,233): 3,584; nectin-4 antibody binding, percent of control [1, 12]: 9.43
TTEHSGIYVCHVSN-NH2 (listed as Homo sapiens) [Peptide 24] |  |  |  |  |  | 3 |  |  | N4 MFI [1, 11]: 33,353; N4 MFI/IgG MFI ([1]; Run Two, Control 2 = 9.46): 8.76; IgG MFI ([1]; Run Two, Control 2 = 5,233): 3,808; nectin-4 antibody binding, percent of control [1, 12]: 66.76
RLKGEAEYQEIRNP-NH2 (listed as Homo sapiens) [Peptide 43] |  |  |  |  | 5 |  |  |  | N4 MFI [1, 13]: 9,677.93; N4 MFI/IgG MFI [1, 14]: 7.399; IgG MFI ([1]; Run Four, Control 4 = 1,026): 1308; nectin-4 antibody binding, percent of control [1, 15]: 97.26
ECRVSTFPAGSFQA-NH2 (listed as Homo sapiens) [Peptide 9] | 8,578 | 1,886 | 4.55 | 50.15 |  | 3 | reduction in nectin-4 antibody binding | 50 | 
PEVTIEGFDGNW-NH2 (listed as Homo sapiens) [Peptide 48] |  |  |  |  | 1 | 2 |  |  | N4 MFI [1, 13]: 10,595.37; N4 MFI/IgG MFI [1, 14]: 9.911; IgG MFI ([1]; Run Four, Control 4 = 1,026): 1069; nectin-4 antibody binding, percent of control [1, 15]: 110.7
ICEFATFPTGNRES-NH2 (listed as Homo sapiens) [Peptide 38] |  |  |  |  | 1 | 3 |  |  | N4 MFI [1, 9]: 12,128.26; N4 MFI/IgG MFI ([1]; Run Three, Control 3 = 9.83): 7.73; IgG MFI ([1]; Run Three, Control 3 = 1330): 1568; nectin-4 antibody binding, percent of control [1, 10]: 89.95
VSPAYEGRVEQPPP-NH2 (listed as Homo sapiens) [Peptide 6] | 12,682 | 1,622 | 7.82 | 82.88 | 1 | 2 |  |  | 
AEASVRGLEDQNLW-NH2 (listed as Homo sapiens) [Peptide 19] | 7,278 | 2,254 | 3.23 | 37.65 | 1 | 2 | reduction in nectin-4 antibody binding; also recorded: reduced antibody binding | 38 | spheroid size (in words) [2]: reduced spheroid size
